# Test system: Aspergillus niger ATCC 16404
# Test: Testing for adequate preservation (European Pharmacopoeia 5.1.3 preservative stress test) of inoculated cosmetic emulsions
# Assay type: cell-based
# Details: for cfu/ml at 0 days / cfu/ml at 2 days / cfu/ml at 7 days / cfu/ml at 14 days: 4-methylbenzyl alcohol 0.4%; for cfu/ml at 0 days / Aspergillus niger germ count at 0 days (initial, "0 value"): day 0; for cfu/ml at 2 days / Aspergillus niger germ count at 2 days: day 2; for cfu/ml at 7 days / Aspergillus niger germ count at 7 days: day 7; for cfu/ml at 14 days: day 14; for Aspergillus niger germ count at 0 days (initial, "0 value") / Aspergillus niger germ count at 2 days / Aspergillus niger germ count at 7 days: 1.0% product in O/W emulsion pH 5.5, B=1.0% 4-methylbenzyl alcohol
# Experimental: Testing for adequate preservation was carried out in accordance with the European Pharmacopoeia. Testing thus comprises contamination of the formulation, if possible in its final condition, with a prescribed inoculum of suitable microorganisms, storage of the inoculated formulation at a certain temperature, removal of samples from the container at certain intervals of time and determination of the number of microorganisms in the samples removed in this way. The preserving properties are adequate if, under the conditions of the test, a clear reduction or, where appropriate, no increase in the germ count results in the inoculated formulations after the prescribed times at the prescribed temperatures. Experimental details of the test procedure are described in the European Pharmacopoeia (ISBN 3-7692-2768-9; Supplement 2001 to the 3rd Edition, page 421-422, chapter 5.1.3). E: Aspergillus niger ATCC 16404 The initial germ count (cfu/ml; “0 value”) was in the range of from 230000 to 400000 in the various test series. For the tests for adequate preservation, a defined amount of the active compound combination according to the invention (product C) was incorporated into an O/W emulsion. For comparison purposes, the comparison products (product A and B) were incorporated into separate O/W emulsions. […] Phenonip® is a commercially available (Clariant, Nipa preservatives) and in cosmetic formulations widely used antimicrobial active mixture consisting of phenoxyethanol, methylparaben, ethylparaben, butylparaben, propylparaben and isobutylparaben. Testing for adequate preservation was carried out in accordance with the European Pharmacopoeia, as explained in Example 1a. The initial germ count (cfu/ml; “0 value”) was in the range of from 200,000 to 400,000 in the various test series.
# [1] = Example 3, Table 9, dosage: 1,2-decanediol 1.0%, mixture 0.5% (title; listed as prints 1.5%)+0.2%
# [2] = Example 3, Table 8, dosage: 1,2-hexanediol 3.0%, mixture 1.5%+0.2%
# [3] = Example 3, Table 7, dosage: 1,2-pentanediol 4.0%, mixture 2.0%+0.2%
# [4] = Example 1a, A=0.5% 1,2-hexanediol+0.5% 1,2-octanediol, C=0.4%+0.4%+0.2%
# [5] = Example 1b, A=0.25% 1,2-hexanediol+0.75% 1,2-octanediol, C=0.2%+0.6%+0.2%
# [6] = Example 2, A=1.0% 1,2-octanediol, C=0.8% 1,2-octanediol+0.2% 4-methylbenzyl alcohol
smiles,measurement,setting,value
"CCCCCCCCC(O)CO (centres unmarked) [1,2-Decanediol, reference compound]",cfu/ml at 0 days,[1],250000 cfu/ml
same,cfu/ml at 2 days,[1],208000 cfu/ml
same,cfu/ml at 7 days,[1],302000 cfu/ml
"CCCCC(O)CO (centres unmarked) [1,2-Hexanediol, reference compound]",cfu/ml at 0 days,[2],250000 cfu/ml
same,cfu/ml at 2 days,[2],212000 cfu/ml
same,cfu/ml at 7 days,[2],132000 cfu/ml
"CCCC(O)CO (centres unmarked) [1,2-Pentanediol, reference compound]",cfu/ml at 0 days,[3],250000 cfu/ml
same,cfu/ml at 2 days,[3],246000 cfu/ml
same,cfu/ml at 7 days,[3],265000 cfu/ml
same,cfu/ml at 14 days,[3],246000 cfu/ml
"Cc1ccc(CO)cc1 [4-Methylbenzyl alcohol, 4-methylbenzyl alcohol]","Aspergillus niger germ count at 0 days (initial, ""0 value"")",[4],320000 cfu/ml
same,Aspergillus niger germ count at 2 days,[4],302000 cfu/ml
same,Aspergillus niger germ count at 7 days,[4],167000 cfu/ml
same,"Aspergillus niger germ count at 0 days (initial, ""0 value"")",[5],320000 cfu/ml
same,Aspergillus niger germ count at 2 days,[5],302000 cfu/ml
same,Aspergillus niger germ count at 7 days,[5],167000 cfu/ml
same,"Aspergillus niger germ count at 0 days (initial, ""0 value"")",[6],320000 cfu/ml
same,Aspergillus niger germ count at 2 days,[6],302000 cfu/ml
same,Aspergillus niger germ count at 7 days,[6],167000 cfu/ml
same,cfu/ml at 0 days,[3],250000 cfu/ml
same,cfu/ml at 2 days,[3],208000 cfu/ml
same,cfu/ml at 7 days,[3],302000 cfu/ml
same,cfu/ml at 14 days,[3],132000 cfu/ml
same,cfu/ml at 0 days,[2],250000 cfu/ml
same,cfu/ml at 2 days,[2],208000 cfu/ml
same,cfu/ml at 7 days,[2],302000 cfu/ml
same,cfu/ml at 0 days,[1],250000 cfu/ml
same,cfu/ml at 2 days,[1],208000 cfu/ml
same,cfu/ml at 7 days,[1],302000 cfu/ml

# Reference: patent publication US8796339B2, “Compositions comprising benzyl alcohol derivatives and further antimicrobial active compounds” (Symrise AG, priority 2008, dated 2014)
